How the values were obtained:
aortic rings = test: Vasodilation of phenylephrine-contracted rat thoracic aortic rings (organ chamber, isometric tension); parameters: species or system Sprague-Dawley(SD) rats; conditions: for effect to the blood vessel without endothelium / relaxation to the blood vessel with endothelium: aortic rings contracted by 10^-6M phenylephrine; for effect to the blood vessel without endothelium: endothelium removed mechanically; for relaxation to the blood vessel with endothelium: substance alone; for relaxation to the blood vessel with endothelium / vasodilation in the presence of methylene blue(MB) / vasodilation in the presence of nitro-L-arginine(NLA): with endothelium; for vasodilation in the presence of methylene blue(MB): together with 10^-6M methylene blue(MB), an inhibitor of soluble guanylate cyclase; for vasodilation in the presence of nitro-L-arginine(NLA): together with 10^-6M nitro-L-arginine(NLA), an inhibitor of nitric oxide synthase
Procedure: Sprague-Dawley(SD) rats weighing 300-400g were sacrificed and their thoracic aortae were removed quickly, and then placed in a Krebs-Ringer-sodium bicarbonate solution (control solution, NaCl 118.3; KCl 4.7; MgSO4 1.2; KH2PO4 1.2; CaCl2 2.5; NaHCO3 25.0; CaEDTA 0.016 and glucose 11.1mM). Blood within the aortae, adipose and connective tissues surrounding the blood vessel were removed and then the clean aortae were cut down to prepare the aortic rings having 2-3mm length. The aortic rings were suspended vertically in an organ chamber filled with 25ml of control solution (pH 7.4). In some aortic rings, the endothelium was removed mechanically by rolling the rings 7 to 8 times on a tissue towel with pincette. The bottom of aortic ring was fixed to the organ chamber and the top thereof was connected to a transducer coupler through stirrups for recording of isometric tension.
To the aortic rings showing a stable contraction induced by addition of 10^-6M phenylephrine to the organ chamber was added ginsenoside Rg3 or Rg5-dimethylsulfoxide solution alone or together with 10^-6M methylene blue(MB) or 10^-6M nitro-L-arginine(NLA) in order to observe the vasodilation thereof. The degree of contraction by 10^-6M phenylephrine was set to 100% and the degree of relaxation caused by ginsenoside Rg3 or Rg5 was represented as percent(%) with respect thereto.
Vasodilation of the processed panaxadiol saponin fraction obtained in Example 7 as mentioned above was determined according to the same experimental procedure as Test Example 1.

[1] = test system: Human umbilical vein endothelium cells(HUVEC); test: Cytotoxicity to HUVEC cells (MTT, 48 hours); type: cell-based; conditions: for cytotoxicity: compared with solvent alone (Rg3: dimethylsulfoxide; Rg5: distilled water)
Procedure: Human umbilical vein endothelium cells(HUVEC) cultured in M199 medium were suspended in physiological saline to a concentration of 20000 cells/180µl. The cell suspension was introduced into each well of 96-well plate in an amount of 180µl, and then 20µl of dimethylsulfoxide as a solvent or the same volume of Rg3 dissolved in dimethylsulfoxide was added thereto. The plate was incubated for 48 hours in a cell-incubator of 37°C while keeping 5% CO2. Then, 50µl of MTT(3-(4,5-dimethyl-thiazol-2'-yl)-2,5-diphenyltetrazolium bromide) dissolved in phosphate buffered solution in a concentration of 2mg/ml was added thereto and incubated again for 4 hours under the same condition as mentioned above. Thereafter, the supernatant was removed and 200µl of dimethylsulfoxide was added to measure the absorbance at 540nm. The absorbance measured was converted into cell number to determine IC50 of dimethylsulfoxide solvent and Rg3 which is the concentration to inhibit the cell growth by 50% and can be used as an index of cytotoxicity.
Human umbilical vein endothelium cells(HUVEC) cultured in M199 medium were suspended in physiological saline to a concentration of 20000 cells/180µl. The cell suspension was introduced into each well of 96-well plate in an amount of 180µl, and then 20µl of distilled water as a solvent or the same volume of Rg5 dissolved in distilled water was added thereto. The plate was incubated for 48 hours in a cell-incubator of 37°C while keeping 5% CO2. Then, 50µl of MTT(3-(4,5-dimethyl-thiazol-2'-yl)-2,5-diphenyltetrazolium bromide) dissolved in phosphate buffered solution in a concentration of 2mg/ml was added thereto and incubated again for 4 hours under the same condition as mentioned above. Thereafter, the supernatant was removed and 200µl of dimethylsulfoxide was added to measure the absorbance at 540nm.

Molecule | effect to the blood vessel without endothelium (aortic rings) | relaxation to the blood vessel with endothelium (aortic rings) | vasodilation in the presence of methylene blue(MB) (aortic rings) | vasodilation in the presence of nitro-L-arginine(NLA) (aortic rings) | cytotoxicity [1] | IC50 (concentration to inhibit the cell growth by 50%) ([1]; dissolved in dimethylsulfoxide)
CC(C)=CC/C=C(\C)[C@H]1CC[C@]2(C)[C@@H]1[C@H](O)C[C@@H]1[C@@]3(C)CC[C@H](O[C@@H]4O[C@H](CO)[C@@H](O)[C@H](O)[C@H]4O[C@@H]4O[C@H](CO)[C@@H](O)[C@H](O)[C@H]4O)C(C)(C)[C@@H]3CC[C@]12C [ginsenoside Rg5] | no effect | concentration-dependent relaxation | significantly inhibited | significantly inhibited | no cytotoxicity | –
ginsenoside Rg3 | no effect | concentration-dependent relaxation | significantly inhibited | significantly inhibited | lower cytotoxicity than the solvent | 26.7 µg/mL
